Source: US10517244B2, “Method to develop herbicide-resistant sugar beet plants” (priority 2012, dated 2019)
Like-named read-outs stand apart in the source and are kept apart here.

Columns and labels:
[1] = test system: traditional variety (wild-type) sugar beet plants (Line WT); assay: Greenhouse trial, damage (phytotoxicity) rating after ALS inhibitor treatment, Line WT; type: in vivo, Beta vulgaris L. ssp. vulgaris; details: day 14 after application at stage BBCH 14; scale 0% no damage to 100% completely killed; g/ha per herbicide
Text: (§1) Uwe Meier, Biologische Bundesanstalt für Land und Forstwirtschaft. Subsequently, the resulting separate groups of sugar beet plants were each individually treated with an ALS inhibitor (ALS-in) in the amounts (g/ha) indicated in Table 2.
(§2) On day 14 after application of the respective ALS inhibitor, the damage (i.e. the phytotoxicity) for each sugar beet plant was rated on a scale from 0% (i.e. no damage, no phytotoxicity) to 100% (i.e. the plants were completely killed).

[2] = test system: sugar beet plants where the proline at position 188 of the ALS enzyme is substituted by a serine (Line C); assay: Greenhouse trial, damage (phytotoxicity) rating after ALS inhibitor treatment, Line C; type: in vivo, Beta vulgaris L. ssp. vulgaris; details: day 14 after application at stage BBCH 14; scale 0% no damage to 100% completely killed; g/ha per herbicide
Text: as §1, §2

[3] = test system: sugar beet plants comprising SEQ.ID.NO:3 and SEQ.ID.NO:5 on two different alleles (Line A); assay: Greenhouse trial, damage (phytotoxicity) rating after ALS inhibitor treatment, Line A; type: in vivo, Beta vulgaris L. ssp. vulgaris
Procedure: Mutated sugar beet plants comprising SEQ.ID.NO:3 and SEQ.ID.NO:5 (on two different alleles) according to the present invention (as described in Example 4 above, “Line A”) were treated with different ALS inhibitors in direct comparison with sugar beet plants where the tryptophan at position 569 of the encoded ALS enzyme is substituted by a leucine (“Line B”), sugar beet plants described in WO 98/02527 where the proline at position 188 of the encoded ALS enzyme is substituted by a serine (“Line C”), and traditional variety (wild-type) sugar beet plants not having a mutation at positions 569 and 188 (“Line WT”).
Several groups of seeds of the four different mentioned sugar beet plants were sown separately in the greenhouse and grew up to stage BBCH 14 for Beta vulgaris L. ssp. vulgaris (i.e. 4 leaves (the second pair) unfolded) according to the monographie “Entwicklungsstadien mono-und dikotyler Pflanzen”, 2nd edition, 2001, ed. Uwe Meier, Biologische Bundesanstalt für Land und Forstwirtschaft. Subsequently, the resulting separate groups of sugar beet plants were each individually treated with an ALS inhibitor (ALS-in) in the amounts (g/ha) indicated in Table 2.
as §2
Additionally, typical early phenotypes of each sugar beet plants were inspected after treatment with a mixture comprising thiencarbazone-methyl and foramsulfuron.

[4] = test system: sugar beet plants where the tryptophan at position 569 of the ALS enzyme is substituted by a leucine (Line B); assay: Greenhouse trial, damage (phytotoxicity) rating after ALS inhibitor treatment, Line B; type: in vivo, Beta vulgaris L. ssp. vulgaris; details: day 14 after application at stage BBCH 14; scale 0% no damage to 100% completely killed; g/ha per herbicide
Text: as §1, §2

[5] = test system: homozygote 569/569 mutant sugar beet; details: WO 2012/049268; cited from earlier work
[6] = test system: regenerated sugar beets having the mutated SEQ.ID.NO:3 (heterozygote); type: in vivo, sugar beet; details: Foramsulfuron 12.5 g/ha, amidosulfuron 15 g/ha, iodosulfuron 3.5 g/ha, thiencarbazone-methyl 7.5 g/ha, up to 3 applications
Text: (§3) The inventors compared the behaviour of regenerated sugar beets having the mutated SEQ.ID.NO:3 (heterozygote for this mutation) and a wild-type (naive) sugar beet commercial variety.

[7] = test system: sugar beet mutant with proline at position 188 of ALS substituted by a serine; details: at the necessary dose rate; WO 98/02527 mutant; cited from earlier work
[8] = test system: wild-type (naive) sugar beet commercial variety; assay: ALS inhibitor treatment of wild-type sugar beets (Example 3); type: in vivo; details: Foramsulfuron 12.5 g/ha, amidosulfuron 15 g/ha, iodosulfuron 3.5 g/ha, thiencarbazone-methyl 7.5 g/ha
Text: as §3

[9] = test system: dual mutant plant comprising SEQ.ID.NO:3 and SEQ.ID.NO:5 (NCIMB 42050); type: in vivo, sugar beet; details: even when put in composition with organic compounds; compatible with field application
Text: The inventors then developed a mutated sugar beet plant comprising SEQ.ID.NO:3 and SEQ.ID.NO:5 (on two different alleles). Such resulting dual mutant has been deposited under the Budapest Treaty under NCIMB 42050. A plant comprising both SEQ.ID.NO:3 and SEQ.ID.NO:5 can be generated by relying on several techniques, including, for instance, a subsequent mutagenesis step applied to the single mutant NCIMB 42051.
The inventors then compared the resistance of this dual mutant plant (a mutation in one allele at amino acid 569 and a mutation in the other allele at amino acid 188) with the single mutant (a mutation at position 569) sugar beet.

[10] = test system: stomatal guard cell protoplasts; assay: Protoplasts viability under mutagenesis treatment; type: cell-based, sugar beet; details: treatment of more than 0.2% EMS
Text: Possibly, this method further comprises the step of adding a mutagen agent to the culture of the isolated stomatal guard cell protoplasts.
Suitable mutagen agents are physical (such as UV or X-ray) exposure or exposure to chemical agents (such as Ethyl Methane Sulfonate (EMS), for instance at 0.05%, 0.1%, 0.15%, 0.2% or even at 2.5%).

[11] = day 14 after application at stage BBCH 14, scale 0% no damage to 100% completely killed, g/ha per herbicide

SMILES	damage (phytotoxicity) average rating, Line WT [1] [%]	damage (phytotoxicity) average rating, Line C [2] [%]	damage (phytotoxicity) average rating, Line A [3, 11] [%]	damage (phytotoxicity) average rating, Line B [4] [%]	resistance of homozygote 569/569 mutant in field trials [5]	resistance of the (heterozygote) mutated variety to the herbicide [6]	resistance of the (heterozygote) mutated variety to the herbicide ([6]; listed as foramsulfuron)	phytotoxicity in field trials on proline 188 serine mutant [7]	sensitivity of the wild-type (naive) plant to the herbicide [8]	resistance of the dual mutant plant line to the herbicide [9]	protoplasts viability [10]	damage (phytotoxicity) average rating, Line A ([3]; in vivo) [%]
COc1cc(OC)n2nc(S(=O)(=O)Nc3c(Cl)ccc(C)c3Cl)nc2n1 [Metosulam]	79.4	69.4	13.1	40.6	–	–	–	–	–	–	–	–
COc1cc(OC)nc(NC(=O)NS(=O)(=O)c2cc(NC=O)ccc2C(=O)N(C)C)n1 [Foramsulfuron]	80.0	77.5	26.9	45.6	good resistance	good resistance	best resistance	some phytotoxicity	–	–	–	–
COC(=O)c1csc(C)c1S(=O)(=O)NC(=O)n1nc(OC)n(C)c1=O [Thiencarbazone-methyl]	84.4	37.5	8.1	35.6	–	about the same level of resistance as for iodosulfuron	–	–	very sensitive	good resistance	–	–
COc1cc(OC)nc(Oc2cccc(Oc3nc(OC)cc(OC)n3)c2C(=O)[O-])n1.[Na+] [Bisbyribac-Na]	80.0	71.7	17.5	38.1	–	–	–	–	–	–	–	–
CCOS(C)(=O)=O [EMS, Ethyl Methane Sulfonate]	–	–	–	–	–	–	–	–	–	–	detrimentally affected	–
COc1cc(OC)nc(NC(=O)NS(=O)(=O)N(C)S(C)(=O)=O)n1 [Amidosulfuron]	73.1	51.9	–	37.5	–	same level of resistance	–	–	–	good resistance	–	6.3
